Measurements reported in patent publication US20250255845A1, “USE OF INTERLEUKIN (IL)-17A INHIBITOR IN PREPARATION OF MEDICAMENT FOR TREATING INFLAMMATORY DISEASE” (Xiangnan University, priority 2024, published 2025).

How the values were obtained:
p-STAT3 = experiment: Immunohistochemistry of p-STAT3 in dorsal skin of IMQ-induced psoriasis mice; type: in vivo, Balb/c mice; conditions: preventive and therapeutic administration groups; dose-dependent
Method: (§1) Balb/c mice (female, 6-8 weeks, 20+2 g), with certificate number [SCXK (Xiang) 2021-0002], were purchased from Hunan SJA Laboratory Animal (Changsha, China). All mice were housed in an specific pathogen free (SPF)-grade animal room with a 12 h light/12 h dark cycle, and experiments were started after the mice were acclimated for one week. Next, 96 mice were randomly divided into 12 groups (8 mice/group), including Control group, Control solvent (white vaseline) group, IMQ group, IMQ solvent (white vaseline) group, preventive administration of positive medicament Clo group (IMQ+Clo 55 mg), therapeutic administration of positive medicament group (IMQ+Clo (A) 55 mg), preventive administration of Tan low-dose group (IMQ+Tan 40 μg/cm^2), medium-dose group (IMQ+Tan160 μg/cm^2), and high-dose group (IMQ+Tan 640 μg/cm^2), and therapeutic administration of Tan low-dose group (IMQ+Tan (A) 40 μg/cm^2), medium-dose group (IMQ+Tan (A) 160 μg/cm^2), and high-dose group (IMQ+Tan (A) 640 μg/cm^2). After the mice were anesthetized, a 2 cm×3 cm area on the back was selected for hair removal. Modeling began 48 h after hair removal, and all modeling mice were applied with 65 mg (55 mg on the back and 5 mg on each ear) of IMQ cream every morning for 10 d. […]

TNF-α mRNA = experiment: Real-time fluorescence quantitative PCR, LPS-induced TNF-α mRNA in RAW264.7 cells; type: cell-based, mouse
Method: (§2) RAW264.7 cell culture: mouse mononuclear macrophages (RAW264.7, ATCC) are cultured in a complete medium containing 10% fetal bovine serum (FBS), 1% double antibodies (penicillin and streptomycin), and 89% DMEM at 37° C. and 5% CO2. In this experiment, RAW264.7 cells from passages 3 to 8 are used for related test.
(§3) LPS (100 ng/ml) is added for stimulation, with or without Tan, and the cell supernatant is collected to detect the contents of NO, IL-23, IL-17A, TNF-α, and IL-6 in the cell supernatant. The cell lysate is collected and the protein expressions (STAT3, p-STAT3 (Ser727), and p-STAT3 (Tyr705)) are detected by Western blot. Total cell RNA is extracted and real-time fluorescence quantitative polymerase chain reaction (PCR) is conducted to detect the expression levels of IL-23, IL-17A, TNF-α, and IL-6 mRNA.
RAW264.7 cells were inoculated into 6-well plate and the cell density was adjusted to 5.0×10^6 cells/well. […] The fluorescence intensity of each sample was detected according to the instructions of the real-time fluorescence quantitative PCR kit and specific primers (Table 1) (cycle conditions: enzyme activation 95° C. for 3 min, 1 cycle; denaturation 95° C. for 15 s, annealing/extension 60° C. for 1 min, 40 cycles). The mRNA expression level of each group was normalized with the GAPDH expression level, and the relative expression of mRNA was calculated using the 2^−ΔΔCt method.

[1] = tested on: IMQ-induced psoriasis mice; experiment: H&E histological evaluation of dorsal skin of IMQ-induced psoriasis mice; type: in vivo, Balb/c mice; conditions: dose-dependent
Method: as §1

p-STAT3 (Ser 727) = experiment: Western blot of p-STAT3 (Ser 727) in LPS-induced RAW264.7 cells; type: cell-based, mouse
Method: as §2, §3
RAW264.7 cells in the logarithmic growth phase were inoculated in 100 mm culture dishes, and the cell density was adjusted to 1.6×10^6 cells/dish. After cultured for 24 h, different concentrations (5, 10, 20, 40 μM) of Tan were added to allow pretreatment for 2 h, and LPS (100 ng/ml) was added to allow incubation for 24 h. The original medium was removed, and the cells were washed 2 times with pre-cooled PBS buffer. Then, protein lysis buffer (300 μL per dish) was added for lysis on ice for 30 min. The supernatant was collected by centrifugation at 4° C., 12,000 rpm for 5 min, and the protein concentration was determined by BCA method. Next, 60 μg of total protein sample was loaded, separated by 10% Sodium Dodecyl Sulfate Polyacrylamide Gel Electrophoresis (SDS-PAGE) gel, and transferred to Polyvinylidene Fluoride (PVDF) membrane by electrophoresis. The membrane was blocked with 5% skim milk at room temperature for 1 h, and 3 mL of GAPDH, STAT3, p-STAT3 (Ser727), and p-STAT3 (Tyr705) antibodies were added and incubated overnight at 4°° C. […] Enhanced Chemiluminescence (ECL) color development was used for detection, and protein band quantification was performed using Image J software.

For `COc1ccc(-c2cc(=O)c3c(OC)c(OC)c(OC)c(OC)c3o2)cc1` [Tan, tangeretin], the “expression level of p-STAT3 in the dorsal skin” value (p-STAT3) was “significantly reduced”, the “inhibitory effect on TNF-α mRNA compared with positive control Clo” value (TNF-α mRNA; 40 μM) was “comparable to that of the positive control Clo” and the “relative expression level of TNF-α mRNA” value (TNF-α mRNA; 5-40 μM, 24 h, vs LPS, P<0.001, dose-dependent) was “significantly decreased”. The “H&E histology of dorsal skin (epidermal thickness, hyperkeratosis, inflammatory infiltration)” value ([1]; preventive Tan group vs IMQ group) was “reduced epidermal tissue thickness, reduced hyperkeratosis, and slight inflammatory cellular infiltration”, the “H&E histology of dorsal skin (epidermal thickness, hyperkeratosis, inflammatory infiltration)” value ([1]; therapeutic Tan group, especially high-dose, vs IMQ group) was “reduced epidermal tissue thickness, reduced hyperkeratosis, and slight inflammatory cellular infiltration” and the “suppression of p-STAT3 (Ser 727) relative to p-STAT3 (Tyr 705)” value (p-STAT3 (Ser 727)) was “more pronounced suppression”. The “suppression of STAT3 phosphorylation (Ser 727) compared with positive control Clo” value (p-STAT3 (Ser 727); 40 μM) was “comparable efficacy to the positive control” and the “expression of p-STAT3 (Ser 727) protein” value (p-STAT3 (Ser 727); 5-40 μM, vs LPS group, P<0.001, dose-dependent) was “inhibited”.
